Results on four molecules are retold here after patent US20150025012A1, “METHODS AND COMPOSITIONS FOR IDENTIFICATION, ASSESSMENT AND TREATMENT OF CANCERS ASSOCIATED WITH HEDGEHOG SIGNALING” (Infinity Pharmaceuticals, Inc., priority 2010, published 2015).

As usually defined, the IC50 is the midpoint of a concentration-inhibition curve.

Counter-ions that a name gives are not always drawn.

In one experiment the test system is hedgehog pathway. Description: C3H10T1/2 alkaline phosphatase assay (Shh-dependent osteoblast differentiation). The class given is cell-based. The settings on record: Mus musculus, C3H 10T1/2; HCl salt; sonic hedgehog 250 ng/ml; AP activity normalized against total protein; read-out: IC50 (antagonist of the hedgehog pathway). The text has this:
An exemplary assay to evaluate the activity of a hedgehog inhibitor is as follows. C3H10T1/2 cells differentiate into osteoblasts when contacted with the sonic hedgehog peptide (Shh-N). Upon differentiation, these osteoblasts produce high levels of alkaline phosphatase (AP) which can be measured in an enzymatic assay (Nakamura et al., 1997 BBRC 237: 465). Compounds that block the differentiation of C3H10T1/2 into osteoblasts (a Shh dependent event) can therefore be identified by a reduction in AP production (van der Horst et al., 2003 Bone 33: 899). The assay details are described below. Additional assays to ascertained the activity of hedgehog inhibitors, including IPI-926, are described in US 2009/0181997 by Grayzel et al., U.S. Ser. No. 61/327,373 and 61/331,365, filed on Apr. 23, 2010 and May 4, 2010, respectively; the entire contents of the aforesaid applications are incorporated herein by reference. […]
C3H10T1/2 cells were plated in 96 wells with a density of 8×10^3 cells/well. […] After incubating for 30 min at 37° C., the plates were read on an Envision plate reader at 405 nm. Total protein was quantified with a BCA protein assay kit from Pierce according to manufacturer's instructions. […]

In a further experiment the test system is human SHh expression. Description: Hedgehog ligand expression in bladder cancer cells after chemotherapy. The class given is cell-based. The settings on record: 24, 48, 72 hours, highest after 144 hours.
For the next experiment, the system named is Bx-PC3 tumors. Description: Growth of Bx-PC3 tumors in mice. The class given is in vivo. The settings on record: single agents and combination. The text has this: Bevacizumab, a monoclonal antibody, exerts its activity by neutralizing VEGF, a factor important of the proliferation and survival of endothelial cells. […] In the same study, the relative effect of these agents was explored by measuring the mRNA expression of PECAM-1, a marker of endothelial cells and RGS5, a marker of pericytes. […] The role of the vasculature and its supporting pericyte population in the mechanism of action of IPI-926 continues to be explored.
For in vivo studies, tumors were grown in male NCR-nu/nu mice by subcutaneous injection of 5×10^6 cells. Tumor growth was monitored using calipers. When tumors reached an approximate size of 200 mm^3, tumor bearing animals were randomized into treatment arms and administered agents or vehicles as described.

For `CC1=C2C[C@H]3[C@@H](CC[C@@H]4C[C@H](NS(C)(=O)=O)CC[C@@]43C)[C@@H]2CC[C@@]2(C1)O[C@@H]1C[C@H](C)CN[C@H]1[C@H]2C` [IPI-926 (HCl salt)], the IC50 with hedgehog pathway was below 20 nM.

As for `COc1cccc2c1C(=O)c1c(O)c3c(c(O)c1C2=O)C[C@@](O)(C(=O)CO)C[C@@H]3O[C@H]1C[C@H](N)[C@H](O)[C@H](C)O1` [doxorubicin], the “human SHh expression” value in the experiment on human SHh expression is “increase”.

As to `Nc1ccn([C@@H]2O[C@H](CO)[C@@H](O)C2(F)F)c(=O)n1` [gemcitabine], the “human SHh expression” value in the experiment with human SHh expression is reported as “increase”.

In the case of “Bevacizumab: a monoclonal antibody, exerts its activity by neutralizing VEGF”, in the experiment on Bx-PC3 tumors, the “activity on the growth of Bx-PC3 tumors” value is given as “approximately the same single agent activity”.
